Measured values reported in patent publication US10550114B2, “Kinase inhibitors and their use in cancer therapy” (TECHNISCHE UNIVERSITÄT DORTMUND, priority 2015, dated 2020).
Read-outs that look alike come from different tables or passages of the source.

Experiments:
MAP4K5 = MAP4K5 (Homo sapiens (Human), UniProt Q9Y4K4); test: Z'LYTE kinase assay, SelectScreen panel; format: biochemical; details: 1 μM compound, apparent ATP KM
PC3 cells = test: Western blot in prostate cancer cells; format: cell-based, human; details: PC3, 24 hours
Protocol: (§1) Human ductal breast carcinoma cells (BT474) and human prostate adenocarcinoma cells (PC-3) were purchased from the ATCC (Bethesda, Md., USA) and were cultured in RPMI 1640 medium (Life Technologies, Germany) supplemented with 10% (v/v) fetal calf serum (FCS; Biochrom, Berlin, Germany) and maintained in a humidified incubator at 37° C. and 5% CO2 (C200, Labotect Incubator, Göttingen, Germany).
(§2) BT474 and PC-3 cells were lysed for 10 min at 95° C. in 62.5 mM Tris-HCl (pH 6.8), 2% (w/v) SDS, 10% (v/v) glycerol, 80 mM DTT, and 0.01% (w/v) bromophenol blue (350.000 cells per 100 μL lysis buffer). Proteins were separated by SDS-PAGE and blotted onto PVDF-membranes (Roth, Karlsruhe, Germany) using Fastblot according to manufacturer's manual (B44, Biometra, Goettingen, Germany). After blocking with 5% (w/v) nonfat dry milk membranes were incubated at 4° C. over night with the respective primary antibody (1:20.000 for β-actin, 1:1000 for all other antibodies). After washing, the membranes were incubated for 1 h at room temperature with the secondary antibody (anti-IgG-HRP 1:2000, CST, Frankfurt, Germany) washed again and monitored by chemiluminescence imaging using FUSION Solo (peqlab, Erlangen, Germany) and appropriate ECL Prime Western blotting detection reagent according to the manufacturer's protocol (GE Healthcare/Amersham-Biosciences, Freiburg, Germany). […]

BT474 cells = test: Western blot in breast cancer cells; format: cell-based, human; details: BT474, 24 hours
Protocol: as §1, §2

GIST-T1 cells = test: Western blot in gastrointestinal stromal tumor cells; format: cell-based, human; details: GIST-T1, 24 hours
Protocol: For GIST-T1 cells protein lysates were prepared from cell line monolayers according to standard protocols as described in A. Duensing, F. Medeiros, B. McConarty, N. E. Joseph, D. Panigrahy, S. Singer, C. […] Protein concentrations were determined with the Bio-Rad Protein Assay (Bio-Rad Laboratories, Hercules, Calif.). Electrophoresis and immunoblotting were carried out as described in B. P. Rubin, S. Singer, C. Tsao, A. Duensing, M. L. Lux, R. Ruiz, M. K. Hibbard, C. J. Chen, S. Xiao, D. A. Tuveson, G. D. Demetri, C.
Controls were treated with dimethyl sulfoxide (DMSO).

[1] = Maximum tolerated dose in mice; details: RjOrl:SWISS, mouse, in vivo, ip, PBS/PEG200 (60:40)
[2] = Pharmacokinetic profiling in mice (plasma, LC-MS/MS); details: for bioavailability: CD1, mouse, in vivo
Protocol: EDTA was added to plasma in order to prevent blood from coagulation. The compound concentrations in the particular plasma samples were determined by LC-MS/MS, as follows:
Samples and blanks were prepared by adding 2.5 μL blank DMSO and 80 μL of ice-cold acetonitrile containing the internal standard (Griseofulvin, 1 μM) to 20 μl plasma followed by centrifugation at 13000 rpm (4° C.) for 10 min. 65 μL of the supernatant were diluted with 65 μL of LC-MS grade water. Samples were filtered (Millipore MSRLN0450 hydrophil) and subjected to LC-MS measurement. […] 2.5 μL of the corresponding DMSO stock solution were added to 20 μL of blank plasma followed by the addition of 80 μL of ice-cold acetonitrile containing the internal-standard. The samples were centrifuged for 10 min and 4° C. at 13000 rpm. 65 μL of the supernatant were diluted with 65 μL of LC-MS grade water and subjected to LC-MS analysis. A set of 3 different QCs (n=3) was prepared by adding of 2.5 μL DMSO stock solution (5, 0.5 and 0.05 μM) to 20 μL of plasma. Samples were subsequently handled as described above. All samples were analyzed using a Shimadzu LC20ADXR Solvent Delivery Unit, a Shimadzu SIL30ACMP autosampler and a ABSciex Qtrap5500 LC-MS/MS system. Therefore, 2 μL of sample were injected and separated using an Agilent Poroshell C18, 2.7 μm column (2.1 mm×50 mm) at 60° C. starting at 5% of solvent B for 0.3 min followed by a gradient up to 100% of solvent B over 0.6 min (flow rate 1 mL/min) with 0.1% formic acid in water as solvent A and 0.1% formic acid in acetonitrile as solvent B. Data evaluation was performed using Analyst 1.6.2 Software (Sciex).

[3] = biological target: fluorescently labeled full-length Akt1 (Homo sapiens (Human), UniProt P31749, C296S/C310S/C344S/E49C); test: iFLiK binding analysis; details: fluorophore-labeled Akt1 200 nM; n.r. = no response up to 100 μM
Protocol: Afterwards they were cloned into pREN4427-HIS-DEST vector and introduced into a baculovirus using the BacMagic Kit (Calbiochem) in Sf9 cells (Invitrogen). Protein expression, purification and labeling was performed according to standard protocols.
The final concentration of fluorophore-labeled recombinant Akt1 was 200 nM.

[4] = biological target: T1, activated full-length wtAkt1 (Homo sapiens (Human), UniProt P31749); test: Time-dependent activity-based screening; format: biochemical; details: incubation 10, 30, 60 or 300 minutes
[5] = biological target: T1, activated full-length wtAkt1; test: Activity-based (HTRF) assay, manual dilution series; details: for higher concentration required for half-maximum inhibition of Akt1 versus alkenyl counterpart: 1b vs 1a, 2b vs 2a
Text: OriginPro 9.1G software (OriginLab Corporation, Northhampton, Mass.) was used for data analysis and data was fit to a sigmoidal dose-response model using the following four-parameter logistic equation:
(§5) The potential influence of the reactive alkenyl group functioning as a Michael acceptor was further evaluated and the inhibitory potencies further assessed in activity-based studies utilizing activated full-length wtAkt1 (Millipore).

[6] = biological target: T1, activated full-length wtAkt1; test: Kinetic characterization by determination of kinact/Ki (time-dependent IC50); format: biochemical; details: incubation 1 to 120 minutes; manual dilution series
Protocol: (§3) Time-dependent IC50 measurements were performed with activated full-length Akt1 as described under “Biochemical assays”. Briefly, IC50 values were determined for twelve different incubation times and afterwards plotted versus accordingly. Data was analyzed according to literature procedure as described in B. F. Krippendorff, R. Neuhaus, P. Lienau, A. Reichel, W. Huisinga, J. Biomol. Screen.
(§4) Calculated IC50 values were plotted versus the incubation time and data was fit as described in the literature to determine kinact and Ki as described above.

wild-type Akt1 [7] = biological target: T2, wild-type Akt1 (Homo sapiens (Human), UniProt P31749); test: ESI-MS of compound-treated Akt1; format: binding; details: 2 molar equivalents, thirty minutes on ice, vs DMSO control
Protocol: Purified full-length wtAkt1 was thawed under cold water and diluted to a final concentration of 1 mg/mL in storage buffer (50 mM HEPES, 200 mM NaCl, 10% Glycerol, pH 7.4). […] Following incubation for thirty minutes on ice, the samples were analyzed by ESI-MS using an Agilent 1100 Series HPLC System connected to a ThermoFinnigan LTQ Linear Ion Trap mass spectrometer. […] During the complete experiment, a mass range of 700 to 2000 m/z was scanned and raw data was deconvoluted and analyzed with MagTran and mMass (Version 5.5.0) software.

Full-length wtAkt1 = Full-length wtAkt1 (Homo sapiens (Human), UniProt P31749); test: ESI-MS/MS analysis after tryptic digest; format: binding; details: 2-fold molar excess
Protocol: Protoc. […] 3 μL of sample were loaded onto a pre-column cartridge and desalted for 5 min using 0.1% TFA in water as eluent at a flow rate of 30 μL/min. The samples were back-flushed from the pre-column to the nano-HPLC column during the whole analysis. […] During the complete gradient cycle, a typical TOP10 shot-gun proteomics method for the MS and MS/MS analysis was used. […] Biotechnol.

[8] = biological target: activated full-length Akt1 (Homo sapiens (Human), UniProt P31749); test: Kinetic parameters (Ki, kinact), ECHO520 dilution series; format: biochemical; details: for kinact/KI: ECHO520
Protocol: as §3, §4

wild-type Akt1 [9] = biological target: T2, wild-type Akt1; test: Activity-based assay, ECHO520 dilution series; format: biochemical
Text: as §5

Akt1_E17K = Akt1_E17K (Homo sapiens (Human), UniProt P31749, E17K); test: Activity-based assay, ECHO520 dilution series; format: biochemical; details: mutant Akt1_E17K
Text: as §5

[10] = activated full-length wtAkt1, 120 pM, manual dilution series

Chain of fluorescently labeled full-length Akt1 (P31749 whole entry E49C/C296S/C310S/C344S): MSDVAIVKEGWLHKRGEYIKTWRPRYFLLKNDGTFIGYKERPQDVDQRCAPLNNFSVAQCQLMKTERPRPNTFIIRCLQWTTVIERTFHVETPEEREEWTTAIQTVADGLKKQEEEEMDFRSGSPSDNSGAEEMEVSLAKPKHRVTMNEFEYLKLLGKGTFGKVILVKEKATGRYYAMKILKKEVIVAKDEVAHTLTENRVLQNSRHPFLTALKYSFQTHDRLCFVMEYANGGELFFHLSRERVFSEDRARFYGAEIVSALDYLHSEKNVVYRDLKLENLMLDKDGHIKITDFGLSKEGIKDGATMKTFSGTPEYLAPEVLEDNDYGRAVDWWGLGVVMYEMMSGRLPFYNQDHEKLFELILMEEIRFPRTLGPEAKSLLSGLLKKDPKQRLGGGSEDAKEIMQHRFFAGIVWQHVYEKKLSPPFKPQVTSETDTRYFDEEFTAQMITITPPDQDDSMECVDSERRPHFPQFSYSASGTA
T1 sequence (P31749 whole entry): as the sequence (P31749 whole entry E49C/C296S/C310S/C344S) above, with C49E, S296C, S310C, S344C counted along it
T2 sequence (P31749 whole entry): as the sequence (P31749 whole entry E49C/C296S/C310S/C344S) above, with C49E, S296C, S310C, S344C counted along it
Chain of activated full-length Akt1 (P31749 whole entry): as the sequence (P31749 whole entry E49C/C296S/C310S/C344S) above, with C49E, S296C, S310C, S344C counted along it
Chain of Akt1_E17K (P31749 whole entry E17K): as the sequence (P31749 whole entry E49C/C296S/C310S/C344S) above, with E17K, C49E, S296C, S310C, S344C counted along it
Chain of MAP4K5 (Q9Y4K4 whole entry): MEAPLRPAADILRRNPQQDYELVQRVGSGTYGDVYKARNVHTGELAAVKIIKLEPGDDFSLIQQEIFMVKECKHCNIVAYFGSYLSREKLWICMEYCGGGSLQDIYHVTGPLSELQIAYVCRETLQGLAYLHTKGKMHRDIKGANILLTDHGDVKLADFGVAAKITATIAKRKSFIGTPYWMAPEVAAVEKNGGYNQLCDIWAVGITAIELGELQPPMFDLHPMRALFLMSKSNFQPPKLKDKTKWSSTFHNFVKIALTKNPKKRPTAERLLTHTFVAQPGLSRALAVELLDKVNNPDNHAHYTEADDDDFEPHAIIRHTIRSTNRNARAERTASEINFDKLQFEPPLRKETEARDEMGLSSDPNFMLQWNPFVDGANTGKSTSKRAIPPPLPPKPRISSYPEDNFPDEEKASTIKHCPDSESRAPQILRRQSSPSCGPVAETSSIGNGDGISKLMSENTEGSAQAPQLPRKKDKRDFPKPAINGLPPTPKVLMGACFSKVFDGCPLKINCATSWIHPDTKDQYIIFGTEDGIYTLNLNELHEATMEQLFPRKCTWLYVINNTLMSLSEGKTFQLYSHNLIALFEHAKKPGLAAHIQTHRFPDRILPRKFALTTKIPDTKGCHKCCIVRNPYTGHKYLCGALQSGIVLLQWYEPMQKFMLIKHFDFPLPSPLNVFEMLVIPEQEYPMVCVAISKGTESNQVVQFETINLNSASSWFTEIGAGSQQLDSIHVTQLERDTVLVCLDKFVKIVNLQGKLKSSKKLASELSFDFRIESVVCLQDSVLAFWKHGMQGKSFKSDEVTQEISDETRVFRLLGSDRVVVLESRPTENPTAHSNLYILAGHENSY
Chain of Full-length wtAkt1 (P31749 whole entry): as the sequence (P31749 whole entry E49C/C296S/C310S/C344S) above, with C49E, S296C, S310C, S344C counted along it

## C=CC(=O)Nc1ccc2[nH]c(=O)n(C3CCN(Cc4ccc(-c5nc6cc[nH]c(=O)c6cc5-c5ccccc5)cc4)CC3)c2c1 [Compound 1a, N-(2-oxo-3-(1-(4-(5-oxo-3-phenyl-5,6-dihydro-1,6-naphthyridin-2-yl)benzyl)piperidin-4-yl)-2,3-dihydro-1H-benzo[d]imidazol-5-yl) acrylamide]
MAP4K5
  inhibition at 1 µM: 37%
PC3 cells
  phosphorylation of Akt1 substrate GSK3β: decreased phosphorylation
PC3 cells; 0.01-10 μM
  pAkt1 (Thr308 and Ser473) level: dose-dependent decreases of pAkt1
BT474 cells
  phosphorylation of Akt1 substrate GSK3β: decreased phosphorylation
BT474 cells; 0.01-10 μM
  pAkt1 (Thr308 and Ser473) level: dose-dependent decreases of pAkt1
GIST-T1 cells
  phosphorylation of downstream targets S6 and 4EBP1: decreasing phosphorylation
GIST-T1 cells; 0.001-0.1 μM
  cellular pAkt1 levels: reduces cellular pAkt1 levels at low nanomolar concentrations
[1]
  MTD: 20 mg/kg
[2]; ip, 20 mg/kg
  bioavailability: 47.7%
[2]; po, 20 mg/kg
  bioavailability: 10.8%
[2]; i.p., 20 mg/kg
  maximum plasma concentration: 1.15 µM
  time of maximum plasma concentration: 45 min
[2]; i.v., 2 mg/kg
  maximum plasma concentration: 1.05 µM
  time of maximum plasma concentration: immediately after injection
[2]; p.o., 20 mg/kg
  maximum plasma concentration: 0.62 µM
  time of maximum plasma concentration: 15 min

## CCC(=O)Nc1ccc2[nH]c(=O)n(C3CCN(Cc4ccc(-c5nc6cc[nH]c(=O)c6cc5-c5ccccc5)cc4)CC3)c2c1 [Compound 1b, N-(2-OXO-3-(1-(4-(5-OXO-3-PHENYL-5,6-DIHYDRO-1,6-NAPHTHYRIDIN-2-YL)BENZYL)PIPERIDIN-4-YL)-2,3-DIHYDRO-1H-BENZO[D]IMIDAZOL-5-YL) PROPIONAMIDE]
[3]
  Kd: 62 ± 12 nM
[4]
  time dependence of dose-response curves: No differences were observed
[5]
  higher concentration required for half-maximum inhibition of Akt1 versus alkenyl counterpart: 10 fold
[5]; [10]
  IC50: 7.5 ± 2 nM

## C=CC(=O)Nc1cccc(-c2cn(C3CCN(Cc4ccc(-c5nc6ccccn6c5-c5ccccc5)cc4)CC3)nn2)c1 [Compound 2a, N-[3-(1-{1-[4-(3-Phenylimidazo[1,2-a]pyridin-2-yl)benzyl]piperidin-4-yl}-1H-1,2,3-triazol-4-yl)phenyl]acrylamide]
[3]
  Kd: 795 ± 176 nM
[6]
  kinact/KI: 2300 ± 300 M⁻¹ s⁻¹
wild-type Akt1 [7]
  mass increase of Akt1 (single labeled): 572 Da
Full-length wtAkt1
  covalently modified residues: covalently bind to Akt1 at Cys296 and Cys310
[5]
  IC50: 372 ± 48 nM
[5]; [10]
  IC50: 372 ± 48 nM

## CCC(=O)Nc1cccc(-c2cn(C3CCN(Cc4ccc(-c5nc6ccccn6c5-c5ccccc5)cc4)CC3)nn2)c1 [Compound 2b, N-[3-(1-{1-[4-(3-Phenylimidazo[1,2-a]pyridin-2-yl)benzyl]piperidin-4-yl}-1H-1,2,3-triazol-4-yl)phenyl]propionamide]
[3]
  Kd: 797 ± 180 nM
[5]
  IC50: 992 ± 328 nM
  higher concentration required for half-maximum inhibition of Akt1 versus alkenyl counterpart: 4 fold

## CCC(=O)Nc1cccc(C(=O)NC2CCN(Cc3ccc(-c4nc5cc[nH]c(=O)c5cc4-c4ccccc4)cc3)CC2)c1 [Compound 27]
[3]
  Kd: 79 ± 21 nM
[5]; [10]
  IC50: 18.2 ± 13.3 nM

## CN(C)C/C=C/C(=O)Nc1ccc2[nH]c(=O)n(C3CCN(Cc4ccc(-c5nc6cc[nH]c(=O)c6cc5-c5ccccc5)cc4)CC3)c2c1 [Compound 36]
[8]
  kinact: 0.00102 s⁻¹
  kinact/KI: 51000 ± 10000 M⁻¹ s⁻¹

## N#C/C(=C\C1CC1)C(=O)Nc1cccc(C(=O)NC2CCN(Cc3ccc(-c4nc5cc[nH]c(=O)c5cc4-c4ccccc4)cc3)CC2)c1 [Compound 45]
[8]
  kinact: 0.00182 s⁻¹
  kinact/KI: 41000 ± 9000 M⁻¹ s⁻¹

## C=CC(=O)Nc1ccc2c(c1)n(C1CCN(Cc3ccc(-c4nc5cc[nH]c(=O)c5cc4-c4ccccc4)cc3)CC1)c(=O)n2C [Compound 46]
[8]
  Ki: 1 to 18.9 nM
  kinact: 0.00202 s⁻¹
  kinact/KI: 190000 ± 25000 M⁻¹ s⁻¹

## C=CC(=O)Nc1ccc(C(=O)NC2CCN(Cc3ccc(-c4nc5cc[nH]c(=O)c5cc4-c4ccccc4)cc3)CC2)c(F)c1 [Compound 47]
wild-type Akt1 [9]
  IC50: 21.3 ± 1.8 nM
Akt1_E17K
  IC50: 2900 ± 137 nM

## C=CC(=O)Nc1ccc(C(=O)NC2CCN(Cc3ccc(-c4nc5cc[nH]c(=O)c5cc4-c4ccccc4)cc3)CC2)s1 [Compound 48]
wild-type Akt1 [9]
  IC50: 8.1 ± 0.4 nM
Akt1_E17K
  IC50: 397 ± 172 nM

## NC1(c2ccc(-c3nc4ccn5c(=O)[nH]nc5c4cc3-c3ccccc3)cc2)CCC1 [MK-2206, reference compound]
[4]
  time dependence of dose-response curves: No differences were observed
